The text below walks through data of ChEMBL document CHEMBL1135793 (J Med Chem, 2002).

The experiment deals with Urokinase plasminogen activator surface receptor (Homo sapiens, UniProt Q03405). The experiment in a line: Inhibitory activity against human Urokinase plasminogen activator receptor (uPAR) was determined.

pIC50: −log10 of the molar value. Positions of bridges follow the written chain, without caps; N, C: chain ends. Non-standard residues stand in square brackets, D forms with d. Residues, ends and D or L forms follow the SMILES beside them. Nle = CCCC[C@H](N)C(=O)O

Sequence of Urokinase plasminogen activator surface receptor (Q03405 whole entry): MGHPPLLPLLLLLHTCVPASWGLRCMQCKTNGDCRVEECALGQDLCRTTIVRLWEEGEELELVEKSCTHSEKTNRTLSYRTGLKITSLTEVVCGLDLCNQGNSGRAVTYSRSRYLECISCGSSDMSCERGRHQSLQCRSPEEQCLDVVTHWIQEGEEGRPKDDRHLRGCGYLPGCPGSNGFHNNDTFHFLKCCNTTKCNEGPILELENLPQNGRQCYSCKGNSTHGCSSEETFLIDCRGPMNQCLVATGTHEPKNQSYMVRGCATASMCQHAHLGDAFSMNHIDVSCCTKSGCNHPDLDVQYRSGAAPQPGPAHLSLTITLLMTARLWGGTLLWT

Take `CC[C@H](C)[C@@H]1NC(=O)[C@H](CC(N)=O)NC(=O)[C@H](CO)NC(=O)[C@H](Cc2ccccc2)NC(=O)[C@H](Cc2ccc(O)cc2)NC(=O)[C@H](CCCCN)NC(=O)[C@H](CC(N)=O)NC(=O)[C@H](N)CSSC[C@@H](C(=O)N[C@@H](Cc2c[nH]c3ccccc23)C(=O)O)NC1=O`: the pIC50 – broadly, the IC50 on a negative log10 scale, so that one unit is a factor of ten – is 7.40. `CC[C@H](C)[C@@H]1NC(=O)[C@H](CC(N)=O)NC(=O)[C@@H](CO)NC(=O)[C@H](Cc2ccccc2)NC(=O)[C@H](Cc2ccc(O)cc2)NC(=O)[C@H](CCCCN)NC(=O)[C@H](CC(N)=O)NC(=O)[C@@H](N)CSSC[C@@H](C(=O)N[C@@H](Cc2c[nH]c3ccccc23)C(=O)O)NC1=O` gave a pIC50 of under 4.52. As to `CC[C@H](C)[C@@H]1NC(=O)[C@H](CC(N)=O)NC(=O)[C@H](CO)NC(=O)[C@H](Cc2ccccc2)NC(=O)[C@H](Cc2ccc(O)cc2)NC(=O)[C@H](CCCCN)NC(=O)[C@H](CC(N)=O)NC(=O)[C@H](CO)NC(=O)[C@H](C(C)C)NC(=O)[C@H](N)CSSC[C@@H](C(=O)O)NC(=O)[C@H](Cc2c[nH]c3ccccc23)NC(=O)[C@H](Cc2c[nH]cn2)NC1=O`, the pIC50 is 6.70. With `CC[C@H](C)[C@@H]1NC(=O)[C@H](CC(N)=O)NC(=O)[C@H](CO)NC(=O)[C@H](Cc2ccccc2)NC(=O)[C@H](Cc2ccc(O)cc2)NC(=O)[C@H](CCCCN)NC(=O)[C@@H](CC(N)=O)NC(=O)[C@@H](N)CSSC[C@@H](C(=O)N[C@@H](Cc2c[nH]c3ccccc23)C(=O)O)NC1=O`, the pIC50 was under 4.52. In turn, `CC[C@H](C)[C@@H]1NC(=O)[C@H](CC(N)=O)NC(=O)[C@H](CO)NC(=O)[C@H](Cc2ccccc2)NC(=O)[C@H](Cc2ccc(O)cc2)NC(=O)[C@@H](CCCCN)NC(=O)[C@H](CC(N)=O)NC(=O)[C@@H](N)CSSC[C@@H](C(=O)N[C@@H](Cc2c[nH]c3ccccc23)C(=O)O)NC1=O` showed a negative logarithm of the IC50 (pIC50) of under 4.52.

As to `CC[C@H](C)[C@@H]1NC(=O)[C@@H](CC(N)=O)NC(=O)[C@H](CO)NC(=O)[C@H](Cc2ccccc2)NC(=O)[C@H](Cc2ccc(O)cc2)NC(=O)[C@H](CCCCN)NC(=O)[C@H](CC(N)=O)NC(=O)[C@@H](N)CSSC[C@@H](C(=O)N[C@@H](Cc2c[nH]c3ccccc23)C(=O)O)NC1=O`, the pIC50 was under 4.52. In the case of `CC[C@H](C)[C@@H]1NC(=O)[C@H](CC(N)=O)NC(=O)[C@H](CO)NC(=O)[C@H](Cc2ccccc2)NC(=O)[C@H](Cc2ccc3ccccc3c2)NC(=O)[C@H](CCCCN)NC(=O)[C@H](CC(N)=O)NC(=O)[C@H](N)CSSC[C@@H](C(=O)N[C@@H](Cc2c[nH]c3ccccc23)C(=O)O)NC1=O`, the pIC50 was 7.10. Consider `CC[C@H](C)[C@@H]1NC(=O)[C@H](CC(N)=O)NC(=O)[C@H](CO)NC(=O)[C@H](Cc2ccccc2)NC(=O)[C@H](Cc2cccc3ccccc23)NC(=O)[C@H](CCCCN)NC(=O)[C@H](CC(N)=O)NC(=O)[C@H](N)CSSC[C@@H](C(=O)N[C@@H](Cc2c[nH]c3ccccc23)C(=O)O)NC1=O`, for which the pIC50 was 7.30. In turn, `CC[C@H](C)[C@@H]1NC(=O)[C@H](CC(N)=O)NC(=O)[C@H](CO)NC(=O)[C@H](Cc2ccccc2)NC(=O)[C@H](Cc2ccc(O)cc2)NC(=O)[C@H](CCCCN)NC(=O)[C@H](CC(N)=O)NC(=O)[C@@H](N)CSSC[C@@H](C(=O)N[C@@H](Cc2c[nH]c3ccccc23)C(=O)O)NC1=O` gave a pIC50 of 6.05. The compound `CCCC[C@@H]1NC(=O)[C@H](CC(N)=O)NC(=O)[C@H](N)CSSC[C@@H](C(=O)N[C@@H](Cc2c[nH]c3ccccc23)C(=O)O)NC(=O)[C@H]([C@@H](C)CC)NC(=O)[C@H](CC(N)=O)NC(=O)[C@H](CO)NC(=O)[C@H](Cc2ccccc2)NC(=O)[C@H](Cc2ccc(O)cc2)NC1=O` (H-[dC]N[Nle]YFSNICW-OH; disulfide 1-9) gave a pIC50 of 7.22. Consider `CC[C@H](C)[C@@H]1NC(=O)[C@H](CC(N)=O)NC(=O)[C@H](CO)NC(=O)[C@H](Cc2ccccc2)NC(=O)[C@H](Cc2ccc(O)cc2)NC(=O)[C@H](CCCCN)NC(=O)[C@H](CC(N)=O)NC(=O)[C@H](CO)NC(=O)[C@H](C(C)C)NC(=O)[C@@H](N)CSSC[C@@H](C(=O)O)NC(=O)[C@H](Cc2c[nH]c3ccccc23)NC(=O)[C@H](Cc2c[nH]cn2)NC1=O`, for which the pIC50 is 6.15.
